Measurements as given in PubChem BioAssay AID330 (DTP/NCI, 2004).
Inconclusive results and toxic doses are left out. The calls were made as follows: active = survival T/C of 150% or more; inactive = T/C below 125% in these data.

Test system: P388 leukemia ip, CD2F1 mice, survival T/C
Test: NCI In Vivo Anticancer Drug Screen. Data for tumor model P388 Leukemia (intraperitoneal) in CD2F1 (CDF1) mice
Settings: endpoint: median survival time, higher = longer survival
Procedure, shortened: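 Mice carrying the transplanted tumor received test compound or vehicle. Survival was recorded in each group, and the value is the treated-group measurement divided by that of the vehicle-treated control group.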

[1] = dose: 50.0 mg/kg/injection, schedule: Q01DX009 (ip), vehicle: saline
[2] = dose: 50.0 mg/kg/injection, schedule: Q01DX005 (ip), vehicle: Klucel (hydroxypropylcellulose) (HPC)
[3] = dose: 100.0 mg/kg/injection, schedule: Q01DX005 (ip), vehicle: Klucel (hydroxypropylcellulose) (HPC)
[4] = dose: 60.0 mg/kg/injection, schedule: Q01DX005 (ip), vehicle: saline with Tween-80
[5] = dose: 120.0 mg/kg/injection, schedule: Q01DX005 (ip), vehicle: saline with Tween-80
[6] = dose: 240.0 mg/kg/injection, schedule: Q01DX005 (ip), vehicle: saline with Tween-80
[7] = dose: 50.0 mg/kg/injection, schedule: Q01DX005 (ip), vehicle: saline with Tween-80
[8] = dose: 100.0 mg/kg/injection, schedule: Q01DX005 (ip), vehicle: saline with Tween-80
[9] = dose: 200.0 mg/kg/injection, schedule: Q01DX005 (ip), vehicle: saline with Tween-80
[10] = dose: 25.0 mg/kg/injection, schedule: Q01DX009 (ip), vehicle: other
[11] = dose: 50.0 mg/kg/injection, schedule: Q01DX009 (ip), vehicle: other
[12] = dose: 100.0 mg/kg/injection, schedule: Q04DX003 (ip), vehicle: saline with Tween-80
[13] = dose: 50.0 mg/kg/injection, schedule: Q01DX009 (ip), vehicle: saline with Tween-80

Measured: T/C

O=C1C=CC(=O)N1c1ccc2c(c1)oc(=O)c1ccccc12
inactive: dose: 12.5 mg/kg/injection, schedule: Q01DX009 (ip), vehicle: saline 95 % of control | dose: 25.0 mg/kg/injection, schedule: Q01DX009 (ip), vehicle: saline 92 % of control | [1] 90 % of control | dose: 100.0 mg/kg/injection, schedule: Q01DX009 (ip), vehicle: saline 100 % of control | dose: 200.0 mg/kg/injection, schedule: Q01DX009 (ip), vehicle: saline 99 % of control | dose: 400.0 mg/kg/injection, schedule: Q01DX009 (ip), vehicle: saline 110 % of control

CCOC(=O)c1ccccc1-n1nnc(C#N)c1N
inactive: [2] 105 % of control | [3] 115 % of control

S=C(SCc1nc(-c2ccc(Cl)cc2)no1)N1CCSCC1
inactive: [4] 97 % of control | [5] 92 % of control | [6] 105 % of control

CCOc1cc2c(cc1C(C)c1ccccc1)OCO2 (configuration not stated)
inactive: [7] 108 % of control | [8] 101 % of control | [9] 101 % of control

C[C@@H]1CC[C@@]2(OC1)O[C@H]1C[C@H]3[C@@H]4CC=C5C=CCC[C@]5(C)[C@H]4CC[C@]3(C)[C@H]1[C@@H]2C
inactive: dose: 2.25 mg/kg/injection, schedule: Q01DX005 (ip), vehicle: Klucel (hydroxypropylcellulose) (HPC) 100 % of control | dose: 4.5 mg/kg/injection, schedule: Q01DX005 (ip), vehicle: Klucel (hydroxypropylcellulose) (HPC) 100 % of control | dose: 9.0 mg/kg/injection, schedule: Q01DX005 (ip), vehicle: Klucel (hydroxypropylcellulose) (HPC) 105 % of control | dose: 18.0 mg/kg/injection, schedule: Q01DX005 (ip), vehicle: Klucel (hydroxypropylcellulose) (HPC) 100 % of control | dose: 36.0 mg/kg/injection, schedule: Q01DX005 (ip), vehicle: Klucel (hydroxypropylcellulose) (HPC) 98 % of control

Oc1cc2c(cc1C(c1ccc(F)cc1)N1CCCC1)OCO2 (configuration not stated)
inactive: dose: 60.0 mg/kg/injection, schedule: Q01DX005 (ip), vehicle: Klucel (hydroxypropylcellulose) (HPC) 109 % of control | dose: 120.0 mg/kg/injection, schedule: Q01DX005 (ip), vehicle: Klucel (hydroxypropylcellulose) (HPC) 111 % of control | dose: 240.0 mg/kg/injection, schedule: Q01DX005 (ip), vehicle: Klucel (hydroxypropylcellulose) (HPC) 111 % of control

NC(=S)N/N=C\C(CC(O)CO)=N\NC(N)=S (configuration not stated)
inactive: [7] 101 % of control | [8] 101 % of control | [9] 93 % of control

CC(/C=C/c1ccco1)=N\O
inactive: dose: 12.5 mg/kg/injection, schedule: Q01DX009 (ip), vehicle: other 104 % of control | [10] 100 % of control | [11] 91 % of control

O=C1c2ccccc2C(=O)N1OCc1ccc(-c2ccccc2)cc1
inactive: [2] 96 % of control | [3] 93 % of control

O=[N+]([O-])c1ccc(/C=C/C(CCN2CCOCC2)=N/O)cc1
inactive: [4] 104 % of control | [5] 99 % of control | [6] 103 % of control

N#CC1=C(O)/C(=C\C=C\c2ccccc2)N(C(=O)c2ccccc2)C1=N
inactive: [4] 105 % of control | [5] 100 % of control | [6] 104 % of control

CCOC(=O)c1ccc2c(=O)[nH]nc(CO)c2c1
inactive: [7] 104 % of control | [8] 102 % of control | [9] 96 % of control

O/N=C(/Cc1nc2cc(Cl)c(Cl)cc2nc1C/C(=N/O)c1ccncc1)c1ccncc1
inactive: [4] 102 % of control | [5] 100 % of control | [6] 102 % of control

COc1ccc(CSC(=S)Nc2ccc(C(F)(F)F)cc2)cc1
inactive: dose: 50.0 mg/kg/injection, schedule: Q01DX009 (ip), vehicle: suspension in saline 110 % of control | dose: 100.0 mg/kg/injection, schedule: Q01DX009 (ip), vehicle: suspension in saline 101 % of control | dose: 200.0 mg/kg/injection, schedule: Q01DX009 (ip), vehicle: suspension in saline 105 % of control

CN(C)c1nc(OC2C(C3COC(C)(C)O3)OC3OC(C)(C)OC32)nc(N(C)C)n1 (configuration not stated)
inactive: [12] 99 % of control | dose: 200.0 mg/kg/injection, schedule: Q04DX003 (ip), vehicle: saline with Tween-80 100 % of control | dose: 400.0 mg/kg/injection, schedule: Q04DX003 (ip), vehicle: saline with Tween-80 100 % of control

CC(C)(C)c1cc(C(=S)SCc2ccccc2)cc(C(C)(C)C)c1O
inactive: [13] 93 % of control | dose: 100.0 mg/kg/injection, schedule: Q01DX009 (ip), vehicle: saline with Tween-80 105 % of control | dose: 200.0 mg/kg/injection, schedule: Q01DX009 (ip), vehicle: saline with Tween-80 105 % of control

C=CCN(CC=C)c1cc(Cl)nnc1Cl
inactive: [10] 104 % of control | [11] 102 % of control | dose: 100.0 mg/kg/injection, schedule: Q01DX009 (ip), vehicle: other 103 % of control | dose: 200.0 mg/kg/injection, schedule: Q01DX009 (ip), vehicle: other 109 % of control

O=C(O)CCCCCCCCCc1ccccc1
inactive: dose: 12.5 mg/kg/injection, schedule: Q01DX009 (ip), vehicle: saline with Tween-80 100 % of control | dose: 25.0 mg/kg/injection, schedule: Q01DX009 (ip), vehicle: saline with Tween-80 97 % of control | [13] 95 % of control | [1] 97 % of control

O=C(NCCNC(=O)c1cccnc1)c1cccnc1
inactive: [7] 118 % of control | [8] 108 % of control | [9] 111 % of control

COc1cccc2c1C(=O)c1c(O)c3c(c(O)c1C2=O)CC(O)(C(C)=O)CC3OC1CC(NC(=O)C(F)(F)F)C(OC(=O)c2ccc([N+](=O)[O-])cc2)C(CNC(=O)C(F)(F)F)O1 (configuration not stated)
inactive: dose: 3.13 mg/kg/injection, schedule: Q04DX003 (ip), vehicle: distilled water + Tween-80 92 % of control | dose: 6.25 mg/kg/injection, schedule: Q04DX003 (ip), vehicle: distilled water + Tween-80 100 % of control | dose: 12.5 mg/kg/injection, schedule: Q04DX003 (ip), vehicle: distilled water + Tween-80 96 % of control | dose: 25.0 mg/kg/injection, schedule: Q04DX003 (ip), vehicle: distilled water + Tween-80 96 % of control | dose: 50.0 mg/kg/injection, schedule: Q04DX003 (ip), vehicle: distilled water + Tween-80 100 % of control

COc1nnnc2c1sc1ccccc12
inactive: dose: 100.0 mg/kg/injection, schedule: Q01DX001 (ip), vehicle: saline with Tween-80 101 % of control | dose: 200.0 mg/kg/injection, schedule: Q01DX001 (ip), vehicle: saline with Tween-80 104 % of control | dose: 400.0 mg/kg/injection, schedule: Q01DX001 (ip), vehicle: saline with Tween-80 102 % of control

C/C=C(/C)C(=O)O[C@@H]1c2c(C)coc2C(=O)[C@@]2(OC(C)=O)CCC[C@@](C)(O)[C@@]12C
inactive: dose: 3.25 mg/kg/injection, schedule: Q01DX005 (ip), vehicle: saline + alcohol 110 % of control | dose: 6.5 mg/kg/injection, schedule: Q01DX005 (ip), vehicle: saline + alcohol 96 % of control | dose: 13.0 mg/kg/injection, schedule: Q01DX005 (ip), vehicle: saline + alcohol 91 % of control | dose: 26.0 mg/kg/injection, schedule: Q01DX005 (ip), vehicle: saline + alcohol 93 % of control

CC1(C)N=C(N)N=C(N)N1c1cccc(CCCCc2ccc(S(=O)(=O)F)cc2)c1
inactive: dose: 25.0 mg/kg/injection, schedule: Q04DX003 (ip), vehicle: saline 110 % of control

COc1ccc(/C=C/c2cc(OC)cc(=O)o2)cc1
inactive: dose: 12.5 mg/kg/injection, schedule: Q04DX003 (ip), vehicle: saline with Tween-80 100 % of control | dose: 25.0 mg/kg/injection, schedule: Q04DX003 (ip), vehicle: saline with Tween-80 99 % of control | dose: 50.0 mg/kg/injection, schedule: Q04DX003 (ip), vehicle: saline with Tween-80 100 % of control | [12] 100 % of control

CCCN(CCC)C(C)C(O)c1cc2c(c3ccccc13)CCCC2 (configuration not stated)
inactive: dose: 100.0 mg/kg/injection, schedule: Q01DX009 (ip), vehicle: Klucel (hydroxypropylcellulose) (HPC) 109 % of control | dose: 200.0 mg/kg/injection, schedule: Q01DX009 (ip), vehicle: Klucel (hydroxypropylcellulose) (HPC) 93 % of control

CN=C=O
inactive: dose: 6.25 mg/kg/injection, schedule: Q01DX005 (ip), vehicle: water 99 % of control | dose: 12.5 mg/kg/injection, schedule: Q01DX005 (ip), vehicle: water 92 % of control | dose: 25.0 mg/kg/injection, schedule: Q01DX005 (ip), vehicle: water 98 % of control | dose: 50.0 mg/kg/injection, schedule: Q01DX005 (ip), vehicle: water 101 % of control | dose: 100.0 mg/kg/injection, schedule: Q01DX005 (ip), vehicle: water 108 % of control | dose: 200.0 mg/kg/injection, schedule: Q01DX005 (ip), vehicle: water 99 % of control
